Source: patent US20090118253A1, “COMPOSITIONS AND METHODS FOR TREATING DYSFUNCTIONAL UTERINE BLEEDING” (REPROS THERAPEUTICS INC., priority 2007, published 2009)
Each block holds one molecule with its values, some of them ahead of it.

Assays:
[1] = tested on: progesterone-induced endometrial glandular proliferation in rabbit uterus; assay: anti-McGinty and anti-Clauberg assays in the rabbit uterus; format: in vivo; conditions: for rabbit Biol. Act.: average of anti-McGinty and anti-Clauberg results relative to CDB-2914 (=1.00)
From the text: Also given in Table 1 are the relative biological activities of the same compounds in the rabbit uterus by the anti-McGinty and anti-Clauberg assays. Compound CDB-2914 (listed at the end of the Table) was used as the control or reference compound (rabbit Biological Activity=1.00) for these experiments because results of experiments using CDB-2914 have been published before (Hild-Petito et al., 1996; Passaro et al., 1997; Reel et al., 1998; Lamer et al., 2000). For the anti-McGinty test, immature female rabbits received a subcutaneous injection of 5 μg estradiol in 10% ethanol/sesame oil daily for 6 consecutive days. On day 7, animals underwent sterile abdominal surgery to ligate a 3-4 cm segment of both uterine horns. The test compound in appropriate solvent was injected intraluminally into the ligated segment of one uterine horn and vehicle alone into the other. A stimulating dose of progesterone (267 μg/day) was administered subcutaneously to each rabbit daily for the next three days to induce endometrial proliferation. All animals were sacrificed at day 10 for removal of the uterus where a segment central to the ligatures was removed and fixed in 10% neutral buffered formalin and submitted for histological processing. Five micron sections stained with hematoxylin and cosin were evaluated microscopically for the degree of endometrial glandular proliferation. The percent inhibition of endometrial proliferation for each rabbit was calculated and the mean of the group of five animals recorded. For the Anti-Clauberg test, immature female rabbits received a subcutaneous injection of 5 μg estradiol in 10% ethanol/sesame oil daily for 6 consecutive days. On day 7, animals received progesterone by subcutaneous injection (160 μg/day) and the experimental compound in appropriate vehicle orally or subcutaneously for five consecutive days. One group of rabbits received progesterone only. Twenty-four hours after the last dose, all animals were sacrificed for removal of the uterus which was cleaned of all fat and connective tissue, weighed to the nearest 0.2 mg and placed in 10% neutral buffered formalin for subsequent histological processing. Five micron sections stained with hematoxylin and eosin were evaluated microscopically for the degree of endometrial glandular proliferation. The percent inhibition of endometrial proliferation at each dose level of the test compound was derived by comparison with progesterone-stimulated animals alone. The data presented in Table 1 (rabbit Biol. Act.) reflects the average of the results obtained for each compound by the anti-McGinty and anti-Clauberg assays relative to CDB-2914.

[2] = tested on: rabbit progesterone receptor (rbPR) and glucocorticoid receptor (rbGR); assay: Receptor-binding assays, ratio of relative binding affinities rbPR/rbGR; conditions: ratio of relative binding affinities (RBA = EC50 of standard/EC50 of test compound x 100) for rbPR and rbGR
Protocol: Certain antiprogestins were tested in receptor-binding assays for their ability to bind rabbit progesterone receptor (rbPR) and glucocorticoid receptor (rbGR). Briefly, cytosol containing PR or GR were prepared in TEGMD buffer (10 mM Tris, pH 7.2, 1.5 mM EDTA, 0.2 mM sodium molybdate, 10% glycerol, 1 mM DTT) from uterus or thymus, respectively, of estradiol-primed immature rabbits. For PR binding, the cytosol was incubated with 6 nM 1,2-[^3H]progesterone (50.0 Ci/mmole) and competitors were added at concentrations from 2 to 100 nM. For binding to GR, the cytosol was incubated with 6 nM 6,7-[^3H]-dexamethasone (40 Ci/mmol) and test compounds were added at concentrations from 20 to 100 nM. After overnight incubation at 4 C, bound and unbound [^3H] steroids were separated by addition of dextran-coated charcoal and centrifugation at 2100×g for 15 min at 4 C. Supernatants containing the [3H]-steroid receptor complexes were decanted into vials containing 4 ml Optifluor (Packard Instrument Co.), vortexed, equilibrated in a liquid scintillation counter for 30 minutes and then counted for 2 minutes. The EC50 (Effective Concentration) for each standard curve and each of the compound curves was determined by entering the counting data into a four parameter sigmoidal computer program (RiaSmart® Immunoassay Data Reduction Program, Packard Instrument Co., Meriden, Conn.). Relative binding affinity (RBA) for each compound was calculated using the following equation: EC50 of standard/EC50 of test compound×100. The standards for the PR and GR assays were unlabeled progesterone and dexamethasone, respectively. The results of these experiments are summarized in Table 1, as a ratio of the relative binding affinities of each compound for the rbPR and rbGR receptors (rbPR/rbGR).

[3] = target: T1, glucocorticoid receptor (rbGR) (Oryctolagus cuniculus, UniProt P59667); assay: Glucocorticoid receptor binding / anti-glucocorticoid receptor activity; parameters: species or system rabbit
T1 construct: cytosol containing PR or GR were prepared in TEGMD buffer; from tissue; host or cells: thymus of estradiol-primed immature rabbits (cytosol)
T1 sequence (P59667 1-772): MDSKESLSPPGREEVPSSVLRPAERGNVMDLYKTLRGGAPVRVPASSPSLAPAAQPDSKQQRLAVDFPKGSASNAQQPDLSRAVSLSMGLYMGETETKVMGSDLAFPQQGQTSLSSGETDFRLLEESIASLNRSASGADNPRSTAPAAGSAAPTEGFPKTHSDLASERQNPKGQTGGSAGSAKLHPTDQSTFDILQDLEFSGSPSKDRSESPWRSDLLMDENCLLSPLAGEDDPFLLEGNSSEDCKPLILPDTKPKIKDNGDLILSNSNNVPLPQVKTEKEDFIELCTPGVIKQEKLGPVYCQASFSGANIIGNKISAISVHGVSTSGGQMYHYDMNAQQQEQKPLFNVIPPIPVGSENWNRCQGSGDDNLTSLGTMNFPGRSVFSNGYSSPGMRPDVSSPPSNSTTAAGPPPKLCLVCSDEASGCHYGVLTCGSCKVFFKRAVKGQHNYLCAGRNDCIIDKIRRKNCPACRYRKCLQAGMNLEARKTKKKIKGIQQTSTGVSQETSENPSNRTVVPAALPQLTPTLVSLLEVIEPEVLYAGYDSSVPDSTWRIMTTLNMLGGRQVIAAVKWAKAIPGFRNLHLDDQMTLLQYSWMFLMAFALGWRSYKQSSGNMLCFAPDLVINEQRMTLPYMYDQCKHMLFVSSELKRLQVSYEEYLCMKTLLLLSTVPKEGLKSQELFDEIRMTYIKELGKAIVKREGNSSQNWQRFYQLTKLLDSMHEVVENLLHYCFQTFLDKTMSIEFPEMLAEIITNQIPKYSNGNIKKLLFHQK
Protocol: Certain antiprogestins were tested in receptor-binding assays for their ability to bind rabbit progesterone receptor (rbPR) and glucocorticoid receptor (rbGR). […] For PR binding, the cytosol was incubated with 6 nM 1,2-[^3H]progesterone (50.0 Ci/mmole) and competitors were added at concentrations from 2 to 100 nM. For binding to GR, the cytosol was incubated with 6 nM 6,7-[^3H]-dexamethasone (40 Ci/mmol) and test compounds were added at concentrations from 20 to 100 nM. After overnight incubation at 4 C, bound and unbound [^3H] steroids were separated by addition of dextran-coated charcoal and centrifugation at 2100×g for 15 min at 4 C. Supernatants containing the [3H]-steroid receptor complexes were decanted into vials containing 4 ml Optifluor (Packard Instrument Co.), vortexed, equilibrated in a liquid scintillation counter for 30 minutes and then counted for 2 minutes. […] The standards for the PR and GR assays were unlabeled progesterone and dexamethasone, respectively.

[4] = Estrogenic, androgenic, anti-estrogenic and anti-androgenic activities
Serum cortisol in rats = format: in vivo, rat; conditions: 10 mg/kg, 21 days of chronic dosing
Protocol: These higher levels were in the range of 3-4 ug/dl (30-40 ng/ml).

[5] = Urinary estrogen levels (follicular phase) in cynomolgus monkeys; format: in vivo, Cynomolgus monkeys (Macaca fascicularis); parameters: Urinary estrogen, follicular phase, Mean: unit not given here; conditions: for Urinary estrogen, follicular phase, Mean: CDB-4124 or RU-486 oral 1.0 mg/kg/day, Lupron IM once per month
Protocol: (§1) Cynomolgus monkeys (Macaca fascicularis) (n=14) were treated orally for 36 weeks with CDB-4124 or RU-486 at 1.0 mg/kg/day or with placebo (control). Another group (n=14) received Lupron® IM once per month. Urinary progesterone levels were measured for each animal for one month during the middle of the study (weeks 14-17) and for the last month of the study (weeks 33-36). The results are presented below:
Urinary estrogen levels were measured for each animal of Example 6 for one month during the middle of the study (weeks 14-17) and for the last month of the study (weeks 33-36). The follicular phase results are based on 35 baseline ovulating cycles.

[6] = tested on: Cynomolgus monkey endometrial epithelium, uterus stroma and breast; assay: TUNEL apoptosis in cynomolgus monkey tissue; format: in vivo, Cynomolgus monkeys (Macaca fascicularis); conditions: week 36, percent apoptotic cells
Protocol: Apoptosis was assessed in tissue from the same animals on slides by the terminal deoxynucleotidyl transferase mediated dUTP-biotin nick end labeling (TUNEL) technique.

[7] = Urinary progesterone levels (luteal phase) in cynomolgus monkeys; format: in vivo, Cynomolgus monkeys (Macaca fascicularis); conditions: n=14 per group; CDB-4124 or RU-486 oral 1.0 mg/kg/day for 36 weeks; Lupron IM once per month
Protocol: as §1, with “33-36).” for “33-36). The results are presented below:”

[8] = Serum corticosterone in rats; conditions: for differences in serum corticosterone between groups: CDB-4124 10 or 20 mg/kg, RU 486 10 mg/kg, progesterone 10 mg/kg
[9] = tested on: Cynomolgus monkey endometrial epithelia, uterus stroma and breast; assay: BrdU incorporation, tissue proliferation in cynomolgus monkeys; format: in vivo, Cynomolgus monkeys (Macaca fascicularis); conditions: week 36, % cells positive for incorporation of BrdU, three animals per group
Protocol: At week 36, three animals from each group of Example 6 were injected within 24 hours of sacrifice with the thymidine analog bromodeoxyuridine (BrdU), a marker of proliferating cells and their progeny, to assess tissue proliferation. Full thickness uterine sections were stained and examined microscopically for evidence of proliferation in terms of the % cells positive for incorporation of BrdU: […]

SMILES: CC(=O)O[C@]1(C(C)=O)CC[C@H]2[C@@H]3CCC4=CC(=O)CCC4=C3[C@@H](c3ccc(N(C)C)cc3)C[C@@]21C [CDB-2914, 17α-acetoxy-11β-(4-N,N-dimethylaminophenyl)-19-norpregna-4,9-dien-3,20-dione, reference compound]
rabbit Biol. Act. [1]: 1.00 | rbPR/rbGR [2]: 1.07 | anti-glucocorticoid receptor activity / glucocorticoid receptor binding [3]: moderately active

SMILES: CC(=O)OCC(=O)[C@@]1(OC(C)=O)CCC2C3CCC4=CC(=O)CCC4=C3C(c3ccc(N(C)C)cc3)C[C@@]21C (stereo partly drawn) [CDB-4059, 21-acetoxy-17α-acetoxy-11β-(4 N,N-dimethylaminophenyl)-19-norpregna-4,9-diene-3,20-dione]
estrogenic, androgenic, anti-estrogenic, and anti-androgenic activities [4]: lack estrogenic, androgenic, anti-estrogenic, and anti-androgenic activities | rabbit Biol. Act. [1]: 2.90 | antiprogestin activity in the rabbit uterus ([1]; in comparison to RU 486 and CDB-2914): strong antiprogestin activity | levels of serum cortisol versus control group (Serum cortisol in rats): significantly higher | rbPR/rbGR [2]: 1.89 | anti-glucocorticoid receptor activity / glucocorticoid receptor binding [3]: minimal anti-glucocorticoid receptor activity

levels of serum cortisol versus control group (Serum cortisol in rats): no significant difference | anti-glucocorticoid receptor activity / glucocorticoid receptor binding [3]: moderately active | differences in serum corticosterone between groups [8]: No differences
SMILES: CC#C[C@]1(O)CC[C@H]2[C@@H]3CCC4=CC(=O)CCC4=C3[C@@H](c3ccc(N(C)C)cc3)C[C@@]21C [RU 486, 11β-[p-(Dimethylamino)phenyl]-17β-hydroxy-17-(1-propynyl)estra-4,9-dien-3-one]
Follicular phase estrogen Lower? ([5]; Week 18): No | Urinary estrogen, follicular phase, Mean ([5]; Week 18): 67.4 | Follicular phase estrogen Lower? ([5]; Week 36): No | Urinary estrogen, follicular phase, Mean ([5]; Week 36): 64.8 | Breast Apo % [6]: 1.2 ± 0.6% | Uterus epithelium Apo % [6]: 0.5 ± 0.1% | Uterus stroma Apo % [6]: 0.5 ± 0.1% | Decrease in luteal phase progesterone (number of animals) [7]: 9 | No decrease in luteal phase progesterone (number of animals) [7]: 5 | Breast Brdu-% [9]: 0.9 ± 0.3% | Uterus epithelium Brdu-% [9]: 12.6 ± 1.8% | Uterus stroma Brdu-% [9]: 3.1 ± 1.0%

differences in serum corticosterone between groups [8]: No differences | levels of corticosterone in animals treated with exogenous progesterone ([8]; after 21 days of treatment, p=0.029, not verified at sacrifice): lowered
SMILES: CC(=O)[C@H]1CC[C@H]2[C@@H]3CCC4=CC(=O)CC[C@]4(C)[C@H]3CC[C@]12C [progesterone]
